Results: publication PMC7281506, “Bengamide Analogues Show A Potent Antitumor Activity against Colon Cancer Cells: A Preliminary Study” (Marine Drugs, 2020)
Read-outs that look alike come from different tables or passages of the source.

Columns and labels:
[1] = system: CCD18 normal colon fibroblast cell line; assay: Proliferation assay (Sulforhodamine B), CCD18; type: cell-based; conditions: Homo sapiens, CCD18, 72 h treatment, mean ± SD of triplicate samples
Experimental: (§1) The T84, SW480, HCT15, HT29 and MC38 colon cancer cell lines were selected to assay the bengamide effect. A normal colon fibroblast cell line (CCD18) was included in the analysis. In addition, a cell line of another tumor type (breast cancer) was studied (MCF7). All cell lines were grown in Dulbecco’s modified Eagle’s medium (DMEM) supplemented with fetal bovine serum (10%) and a mix of penicillin-streptomycin (1%) (Sigma-Aldrich, Madrid, Spain). Cell lines were maintained at 37 °C and 5% CO2 in a humidified incubator.
(§2) The different cell lines were seeded in 48-well plates at a cell density of 3 × 10^3 cells/well for MC38, 5 × 10^3 cells/well for T84, SW480, HCT15 and CCD18, 15 × 10^3 cells/well for HT29 and 4 × 10^3 cells/well for MCF7. After attaching to the well, the treatments, Ben I and Ben V (analogues 5 and 10, respectively), were added in a wide range of doses determined by the cell line from an initial stock of 0.3 mg/mL for Ben I and 6.9 mg/mL for Ben V, both dissolved in water. The treatments were maintained for 72 h. Elapsed this time, the cells were fixed with trichloroacetic acid at 10%, stained with Sulforhodamine B (Sigma-Aldrich, Madrid, Spain) and the dye was lifted with Trizma® (Sigma-Aldrich, Madrid, Spain) at 10% following a previously established protocol. Doxorubicin and 5-Fluorouracil were used as reference compounds in breast and colon cell lines, respectively.

[2] = system: T84 colon cancer cell line; assay: Proliferation assay (Sulforhodamine B), T84; type: cell-based; conditions: Homo sapiens; T84, 72 h treatment, mean ± SD of triplicate samples
Experimental: as §1, §2

[3] = system: SW480 colon cancer cell line; assay: Proliferation assay (Sulforhodamine B), SW480; type: cell-based; conditions: Homo sapiens; SW480, 72 h treatment, mean ± SD of triplicate samples
Experimental: as §1, §2

[4] = system: HCT15 resistant colon cancer cell line; assay: Proliferation assay (Sulforhodamine B), HCT15; type: cell-based; conditions: Homo sapiens, HCT-15; HCT15, 72 h treatment, mean ± SD of triplicate samples
Experimental: as §1, §2

[5] = system: HT29 colon cancer cell line; assay: Proliferation assay (Sulforhodamine B), HT29; type: cell-based; conditions: Homo sapiens, HT-29; HT29, 72 h treatment, mean ± SD of triplicate samples
Experimental: as §1, §2

[6] = system: MC38 mouse colon cancer cell line; assay: Proliferation assay (Sulforhodamine B), MC38; type: cell-based; conditions: MC-38, MC38, 72 h treatment, mean ± SD of triplicate samples
Experimental: as §1, §2

[7] = system: MDA-MB-435 human breast cancer cells; conditions: cited from earlier work
cancer cell line A549 = system: cancer cell line A549; parameters: method as in PMID 26514647; conditions: A549, Figure 1; read-out: IC50 (cytotoxicity); cited from earlier work
[8] = system: MCF7 breast cancer cell line; assay: Proliferation assay (Sulforhodamine B), MCF7; type: cell-based; conditions: Homo sapiens; MCF7, 72 h treatment, mean ± SD of triplicate samples
Experimental: as §1, §2

[9] = Hemolysis test using human erythrocytes; type: cell-based; conditions: human erythrocytes isolated from blood of healthy donors, 1 h at 37 °C, highest doses (range 0.01–40 µM), read-out: level of hemolysis
Experimental: (§3) To evaluate the effect of Ben I and Ben V compounds on blood cells, a hemolysis test using human erythrocytes and a toxicity test using WBC were carried out. Different blood cells (erythrocytes and WBC) were isolated from blood samples taken from healthy donors and exposed to a wide range of doses of both Ben I and Ben V compounds (0.01–40 µM) following our previously described protocol. Briefly, the erythrocytes were diluted 50 times their initial concentration in PBS, seeded in conical bottom 96-well plates and treated with the different treatments for 1 h at 37 °C under stirring. Following this, the plate was centrifuged, 100 µL of the supernatant was transferred to a new 96-well flat-bottom plate and the absorbance at 492 nm was determined. Erythrocytes treated with Triton X-100 to 20% were used as a positive control and as a negative control, erythrocytes treated with PBS were used. In the case of erythrocytes, the percentage of hemolysis (%HR) was calculated with the following formula: %HR=Abs(sample)−Abs(−control)/Abs(+control)−Abs(−control)×100.

human erythrocytes = assay: Hemolysis test using human erythrocytes; type: cell-based; conditions: light microscopy after treatment
Experimental: as §3

[10] = Toxicity test in white blood cells (CCK-8); type: cell-based; conditions: human; WBC, 1 and 12 h of exposure, all doses tested (0.01–40 µM)
Experimental: as §3, with “Erythrocytes treated with Triton X-100 to 20% were used as a positive control and as a negative control, erythrocytes treated with PBS were used.” left out
As for the WBCs, they were seeded in flat-bottom 96-well plates in RPMI-1640 medium supplemented with FBS (10%) and a mixture of antibiotic (1%) at a density of 2 × 10^4 cells/well. […] The CCK-8 reagent was added to each well and after 3 h of incubation the absorbance was measured at 450 and 620 nm to determine the viability according to the manufacturer.

T84 cells = assay: Cell cycle assay (PI, flow cytometry), T84; type: cell-based, human; conditions: T84, 48 h; for G2/M phase change vs control: IC25 and IC50
Experimental: (§4) To assess the effect of treatments in the cell cycle, a cancer cell line (T84) and a normal cell line (CCD18) were seeded in 6-well plates at a density of 1.5 × 10^5 and 1 × 10^5 cells/well, respectively. […] In addition, untreated cells were used as a negative control and cells treated with 5-FU at its IC50 at 48 h as a positive control. After this time, the culture medium of each treatment was collected in a clean cytometry tube, the wells were washed with PBS at 4 °C and this wash was added to the previous tube. The cells were detached with a trypsin-EDTA mixture and also added to the tube. Next, the tubes were centrifuged at 3500 rpm for 3 min, the supernatant was discarded, and the pellet was resuspended in 100 µL of PBS. After this, 900 µL of 70% cold EtOH was added to each tube while the tubes were vortexed, then the tubes were placed on ice and incubated at 4 °C for 10 min. After this time, two washes were carried out with PBS to remove ethanol and the pellets were resuspended in 250 µL of PBS, to which 250 µL of DNA extraction solution was added (192 mL of 0.2 M Na2HPO4 + 8 mL of 0.1 M citric acid, pH = 7.8). The samples were incubated at 37 °C for 10 min, centrifuged and the supernatant discarded. Finally, 250 µL of propidium iodide (PI)/RNAse (ImmunoStep, Salamanca, Spain) solution was added and the samples were incubated for 10 min at 37 °C in the dark. Thereafter, the samples were analyzed by FAC Scan on a Becton Dickinson analyzer cytometer (Becton Dickinson, Franklin Lakes, NJ, USA).

CCD18 normal colon cells = assay: Cell cycle assay (PI, flow cytometry), CCD18; type: cell-based, human; conditions: CCD18, 48 h; for SubG1 and S phase change vs control: doses of IC50
Experimental: as §4

[11] = clinical candidate; cited from earlier work
[12] = read-out: IC50 (cytotoxicity), MDA-MB-435, Figure 1

## O=c1[nH]cc(F)c(=O)[nH]1 [5-fluorouracil, reference compound]
[1]
  IC50: 7350 ± 410 nM
[2]
  IC50: 2680 ± 160 nM
[3]
  IC50: 6350 ± 540 nM
[4]
  IC50: 6580 ± 350 nM
[5]
  IC50: 6140 ± 940 nM
[6]
  IC50: 330 ± 10 nM

## CO[C@@H](C(=O)N[C@H]1CCCCN(CCOC(=O)C2CCCCC2)C1=O)[C@H](O)[C@@H](O)[C@H](O)/C=C/C(C)(C)C [Ben III]
[7]; [12]
  IC50: 17 nM

## CO[C@@H](C(=O)N[C@H]1CCCCNC1=O)[C@H](O)[C@@H](O)[C@H](O)/C=C/C1CCCC1 [Ben II]
[7]; [12]
  IC50: 440 nM

## CO[C@@H](C(=O)N[C@H]1CCc2ccccc2NC1=O)[C@H](O)[C@@H](O)[C@H](O)/C=C/C(C)(C)C [Ben IV]
Cancer cell line A549
  IC50: 9 nM

## CO[C@@H](C(=O)N[C@H]1CCCCNC1=O)[C@H](O)[C@@H](O)[C@H](O)/C=C/C(C)(C)C [Ben I]
[1]
  IC50: 4700 ± 280 nM
[2]
  IC50: 360 ± 30 nM
[3]
  IC50: 590 ± 70 nM
[4]
  IC50: 1900 ± 150 nM
[5]
  IC50: 1020 ± 190 nM
[6]
  IC50: 1600 ± 130 nM
[8]
  IC50: 490 ± 50 nM
[9]
  hemolysis at 1 h: ~2%
Human erythrocytes
  erythrocytes agglutination or modification of morphology: none of these compounds caused erythrocytes agglutination or modification of their morphology
[10]
  viability: ~100%
T84 cells
  SubG1 phase change vs control: No differences were observed with the control
  G2/M phase change vs control: statistically significant (p < 0.05) G2/M phase increase
CCD18 normal colon cells
  G2/M phase change vs control: slight increase
  SubG1 and S phase change vs control: marked increase
[7]; [12]
  IC50: 630 nM

## CO[C@@H](C(=O)N[C@@H](C)C(=O)NCCCOC(=O)C1CCCCC1)[C@H](O)[C@@H](O)[C@H](O)/C=C/C(C)(C)C [Ben V]
[1]
  IC50: 5080 ± 390 nM
[2]
  IC50: 70 ± 20 nM
[3]
  IC50: 80 nM
[4]
  IC50: 2440 ± 250 nM
[5]
  IC50: 660 ± 180 nM
[6]
  IC50: 6510 ± 1120 nM
[8]
  IC50: 130 ± 10 nM
[9]
  hemolysis at 1 h: ~2%
Human erythrocytes
  erythrocytes agglutination or modification of morphology: none of these compounds caused erythrocytes agglutination or modification of their morphology
[10]
  viability: ~100%
T84 cells
  G0/G1 and S phases change vs control: slight reduction
  SubG1 phase change vs control: No differences were observed with the control
  G2/M phase change vs control: this increase was much greater
CCD18 normal colon cells
  G2/M phase change vs control: slight increase
  SubG1 and S phase change vs control: marked increase
[7]; MDA-MB-435 human breast cancer cells
  IC50: 4 nM

## CCCCCCCCCCCCCC(=O)O[C@H]1CC[C@H](NC(=O)[C@H](OC)[C@H](O)[C@@H](O)[C@H](O)/C=C/C(C)C)C(=O)NC1 [Bengamide A, bengamide A]
[7]; [12]
  IC50: 1 nM

## CCCCCCCCCCCCCC(=O)O[C@H]1CC[C@H](NC(=O)[C@H](OC)[C@H](O)[C@@H](O)[C@H](O)/C=C/C(C)C)C(=O)N(C)C1 [Bengamide B]
[7]; [12]
  IC50: 2.4 nM

## CO[C@@H](C(=O)N[C@H]1CCCCNC1=O)[C@H](O)[C@@H](O)[C@H](O)/C=C/C(C)C [Bengamide E]
[7]; [12]
  IC50: 3300 nM

## CO[C@@H](C(=O)N[C@H]1CC[C@@H](OC(=O)C2CCCCC2)CNC1=O)[C@H](O)[C@@H](O)[C@H](O)/C=C/C(C)(C)C [LAF389]
[7]; [12]
  IC50: 40 nM
[11]
  pharmacokinetic properties: poor pharmacokinetic properties

## COc1cccc2c1C(=O)c1c(O)c3c(c(O)c1C2=O)C[C@@](O)(C(=O)CO)C[C@@H]3O[C@H]1C[C@H](N)[C@H](O)[C@H](C)O1 [doxorubicin, reference compound]
[8]
  IC50: 40 ± 10 nM

## Bengamide F
[7]; [12]
  IC50: 2900 nM
